Patent US20260048046A1, “METHOD FOR IMPROVING GROWTH PERFORMANCE IN FEEDLOT CATTLE” (Elanco US Inc., priority 2022, published 2026)

Tested on: beef cattle
Assay: 91-d study: growth performance of beef cattle fed lubabegron
Assay type: in vivo
Settings: for ADG / DMI / G:F / Unshrunk final BW: 91-d treatment, LS mean
Description: A randomized complete block design was used to evaluate the effect of lubabegron (LUB) on performance over a 91-d period using 336 beef cattle (BW=453±34.5 kg) housed in cattle pen enclosures (CPE). Four LUB treatments were included in the study based on dose: 0.0 (control or CON), 1.38, 5.5, and 22.0 (mg·kg^−1 of DM). Because there was a limited number of CPE (n=8), three sequential cycles (blocks) were required to generate 6 replicates of each dose×sex combination. As such, 112 cattle (56 steers and 56 heifers) were housed concurrently within each cycle across the eight CPE (14 cattle/CPE), with each dose×sex combination being represented by a single CPE/cycle. To assure different frame sizes of cattle were represented, cattle in cycles one and three were large-frame Continental crossbreds, whereas cattle in cycle 2 were medium-frame British crossbreds.
Treatment administration for the three cycles occurred from April through July, August through November, and December through March of 2014 and 2015, respectively. Four weeks before beginning treatments for each cycle (day −28), up to 145 cattle were sourced from a common origin and transported to the study site at the University of California-Davis to be group-housed in single-sexed outdoor pens. The presence of growth-promoting implants was assessed, and any preexisting implants were excised before shipment to the study site to ensure they had been implant-free for a minimum of 28 d before treatments began on day 0. No additional implants were used in these cattle, and they were considered nonimplanted.
On day −8, cattle were screened for abnormal health conditions by a veterinarian and ranked by BW to identify the 56 eligible cattle within each sex that provided the narrowest weight range. The following day (day −7), the 56 cattle selected for study enrollment. within each sex were grouped into sets of four consecutively weight-ranked cattle. Cattle were then randomly allocated to their respective treatment within each weight group and transferred into the CPE. The CPE were randomly assigned to sex and dose treatment before each cycle, and all study personnel were blinded to treatments throughout the duration of the study. All cattle were fed the negative control basal finishing diet (Table 1) for 1 week (days −7 to −1) after being placed into the CPE to allow for acclimation before beginning treatments.
Treatments began on day 0 and cattle in each CPE received their respective treatment for 91 d. Emission measurements began at 0800 hours on day 0 and ended at 0500 hours on day 91, immediately preceding cattle removal from the CPE for final BW measurements and transportation to the commercial slaughter facility.
Cattle had been fed a concentrate-based diet in a commercial setting before arrival at the study site on day −28, at which point they were provided ad libitum access to water and re-acclimated to a concentrate-based diet using a step-up program involving two intermediate diets based on increasing concentrate levels (˜60% and 70%, respectively) and varying proportions of alfalfa and wheat hay. On day −14, cattle were transitioned onto a finishing diet (Table 1) formulated to meet, or exceed, the minimum nutrient requirements for growing beef cattle (NRC, 2000) that was then fed for the remainder of the study. A nonmedicated supplement (i.e., type B feed with a ground corn carrier) was included as 2.5% of the diet DM during acclimation for all cattle from day −14 until the beginning of treatment administration. On day 0, one of four type B supplements were added to the basal diet to provide either 0.0 (CON), 1.38, 5.5, or 22.0 mg·kg^−1 (DM basis) LUB in a type C (i.e., final feed) medicated feed. All type C feeds containing the appropriate concentrations of LUB or CON were prepared at the study site by adding the same proportions of Type B supplement, water, and basal ration in a rotary mixer wagon (Roto-Mix Forage Express, Dodge City, KS). […]

## CC(C)(Cc1ccc(Oc2ncccc2C#N)cc1)NC[C@H](O)COc1ccccc1-c1cccs1 [LUB, 2-{4-[2-({(2S)-2-Hydroxy-3-[2-(2-thienyl)phenoxy]propyl}amino)-2-methylpropyl]phenoxy}nicotinonitrile]
91 d, all LUB doses vs CON, P=0.257
  Effect of LUB treatment on final BW: not altered
91 d, all LUB doses vs CON, P=0.585
  Effect of LUB on DMI: no effect
LUB 1.38 mg·kg^−1, 91 d
  ADG increase vs. CON: 11.8%
  G:F increase compared with CON: 8.3%
LUB 1.38 mg·kg^−1 DM
  ADG: 1.42 kg
  DMI: 9.2 kg
  G:F: 0.156 kg:kg
  Unshrunk final BW: 583 kg
LUB 5.5 mg·kg^−1, 91 d
  ADG increase vs. CON: 9.4%
  G:F increase compared with CON: 9.7%
LUB 5.5 mg·kg^−1 DM
  ADG: 1.35 kg
  DMI: 8.8 kg
  G:F: 0.158 kg:kg
  Unshrunk final BW: 582 kg
LUB 22.0 mg·kg^−1, 91 d
  ADG increase vs. CON: 12.6%
  G:F increase compared with CON: 13.2%
LUB 22.0 mg·kg^−1 DM
  ADG: 1.43 kg
  DMI: 8.8 kg
  G:F: 0.163 kg:kg
  Unshrunk final BW: 582 kg
